Measured values published in patent US20250011299A1, “PYRIDAZINYL AMINO DERIVATIVES AS ALK5 INHIBITORS” (CHIESI FARMACEUTICI S.P.A., priority 2021, published 2025).

Each molecule was assayed against T1, human ALK5 (Homo sapiens, UniProt P36897) (assay: ADP-GLO Kinases assay of ALK5 enzymatic activity). Settings: purified recombinant human ALK5, TGFβ1 peptide substrate, pIC50 converted to pKi by Cheng-Prusoff, high ATP protocol (15 μM) for very potent compounds, 25° C.
T1 construct: human ALK5 (recombinant TGF β1 N-term GST-tagged, 80-end); GST (N); purchased
T1 sequence (P36897 80-503 limits assumed): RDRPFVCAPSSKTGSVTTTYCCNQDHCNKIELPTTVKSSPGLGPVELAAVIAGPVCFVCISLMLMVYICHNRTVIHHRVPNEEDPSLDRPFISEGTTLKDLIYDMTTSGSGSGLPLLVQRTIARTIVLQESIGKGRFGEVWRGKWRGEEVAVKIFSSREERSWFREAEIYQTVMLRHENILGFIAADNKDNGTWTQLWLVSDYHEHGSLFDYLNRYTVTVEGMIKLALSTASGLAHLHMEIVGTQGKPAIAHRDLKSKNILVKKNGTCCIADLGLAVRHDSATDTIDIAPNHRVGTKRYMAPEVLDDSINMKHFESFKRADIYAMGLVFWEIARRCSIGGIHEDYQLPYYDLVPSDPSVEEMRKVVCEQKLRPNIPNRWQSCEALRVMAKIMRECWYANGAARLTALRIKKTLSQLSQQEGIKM
Assay type: biochemical
Summary of the method: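 Purified ALK5 preincubated 15 min with compound, then reacted with substrate and ATP; ADP formed read by ADP-Glo luminescence after 120 min or 60 min reaction, all steps at 25° C. 11-point concentration-response; pIC50 converted to pKi via Cheng-Prusoff.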

Ki [nM] | Structure (SMILES)
≤ 0.1 | CN1CCN(CCC(=O)Nc2cc(Nc3cc(-c4cc(Cl)ccc4F)nnc3SCC3COC(C)(C)O3)ccn2)CC1 (stereo not shown) [Example 85, N-(4-{[6-(5-chloro-2-fluorophenyl)-3-{[(2,2-dimethyl-1,3-dioxolan-4-yl)methyl]sulfanyl}pyridazin-4-yl]amino}pyridin-2-yl)-3-(4-methylpiperazin-1-yl)propanamide]
≤ 0.1 | COc1nnc(-c2cc(Cl)ccc2F)cc1Nc1ccnc(NC(=O)CCN2CCN(C)CC2)c1 [Example 47, N-(4-{[6-(5-chloro-2-fluorophenyl)-3-methoxypyridazin-4-yl]amino}pyridin-2-yl)-3-(4-methylpiperazin-1-yl)propanamide]
0.126 to 0.316 | C[C@@H]1CN(CC23CC(C(=O)Nc4cc(Nc5cc(-c6cc(Cl)ccc6F)nnc5SCCO)ccn4)(C2)C3)C[C@H](C)N1 [Example 191, N-(4-{[6-(5-chloro-2-fluorophenyl)-3-[(2-hydroxyethyl)sulfanyl]pyridazin-4-yl]amino}pyridin-2-yl)-3-[(3,5-dimethylpiperazin-1-yl)methyl]bicyclo[1.1.1]pentane-1-carboxamide]
≤ 0.1 | COc1nnc(-c2cc(Cl)ccc2F)cc1Nc1ccnc(NC(=O)CN2CCN(CC(F)(F)F)CC2)c1 [Example 14, N-(4-{[6-(5-chloro-2-fluorophenyl)-3-methoxypyridazin-4-yl]amino}pyridin-2-yl)-2-[4-(2,2,2-trifluoroethyl)piperazin-1-yl]acetamide]
≤ 0.1 | O=C(Nc1cc(Nc2cc(-c3cc(Cl)ccc3F)nnc2SCCO)ccn1)[C@H]1C[C@@H](N2CCN(C3CC3)CC2)C1 [Example 160, Cis N-(4-{[6-(5-chloro-2-fluorophenyl)-3-[(2-hydroxyethyl)sulfanyl]pyridazin-4-yl]amino}pyridin-2-yl)-3-(4-cyclopropylpiperazin-1-yl)cyclobutane-1-carboxamide]
≤ 0.1 | CN1CCN(CCC(=O)Nc2cc(Nc3cc(-c4cc(Cl)ccc4F)nnc3OCC3COC(C)(C)O3)ccn2)CC1 (stereo not shown) [Example 77, N-(4-{[6-(5-chloro-2-fluorophenyl)-3-[(2,2-dimethyl-1,3-dioxolan-4-yl)methoxy]pyridazin-4-yl]amino}pyridin-2-yl)-3-(4-methylpiperazin-1-yl)propanamide]
≤ 0.1 | COc1nnc(-c2cc(Cl)ccc2F)cc1Nc1ccnc2cc(OCCN3CCN(C)CC3)ccc12 [Example 46, N-[6-(5-chloro-2-fluorophenyl)-3-methoxypyridazin-4-yl]-7-[2-(4-methylpiperazin-1-yl)ethoxy]quinolin-4-amine]
0.126 to 0.316 | CN(C)CCOC(=O)c1cccc(CSc2nnc(-c3cc(Cl)ccc3F)cc2Nc2ccnc3[nH]ccc23)c1 [Example 207, 2-(dimethylamino)ethyl 3-({[6-(5-chloro-2-fluorophenyl)-4-({1H-pyrrolo[2,3-b]pyridin-4-yl}amino)pyridazin-3-yl]sulfanyl}methyl)benzoate]
0.126 to 0.316 | CN1CCN(CCC(=O)Nc2cc(Nc3cc(-c4cc(Cl)ccc4F)nnc3OCCN)ccn2)CC1 [Example 8, N-(4-{[3-(2-aminoethoxy)-6-(5-chloro-2-fluorophenyl)pyridazin-4-yl]amino}pyridin-2-yl)-3-(4-methylpiperazin-1-yl)propanamide]
0.398 to 3.16 | CC(C)OC(=O)C1CCN1c1nnc(-c2cc(Cl)ccc2F)cc1Nc1ccnc(NC(=O)CCN2CCN(C)CC2)c1 (racemic) [Example 150, propan-2-yl 1-[6-(5-chloro-2-fluorophenyl)-4-({2-[3-(4-methylpiperazin-1-yl)propanamido]pyridin-4-yl}amino)pyridazin-3-yl]azetidine-2-carboxylate]
≤ 0.1 | CN1CCN(CCC(=O)Nc2cc(Nc3cc(-c4cc(Cl)ccc4F)nnc3OCCO)ccn2)CC1 [Example 1, N-(4-{[6-(5-chloro-2-fluorophenyl)-3-(2-hydroxyethoxy)pyridazin-4-yl]amino}pyridin-2-yl)-3-(4-methylpiperazin-1-yl)propanamide]
0.398 to 3.16 | CN1CCN(CCOc2nnc(-c3cc(Cl)ccc3F)cc2Nc2ccnc(N)c2)CC1 [Example 70, N4-[6-(5-chloro-2-fluorophenyl)-3-[2-(4-methylpiperazin-1-yl)ethoxy]pyridazin-4-yl]pyridine-2,4-diamine]
≤ 0.1 | CN1CCN(CCC(=O)Nc2cc(Nc3cc(-c4cc(Cl)ccc4F)nnc3N(C)CC3(C)CCOC3=O)ncn2)CC1 (racemic) [Example 137, N-(6-{[6-(5-chloro-2-fluorophenyl)-3-{methyl[(3-methyl-2-oxooxolan-3-yl)methyl]amino}pyridazin-4-yl]amino}pyrimidin-4-yl)-3-(4-methylpiperazin-1-yl)propanamide]
≤ 0.1 | CN1CCCN(CC(=O)Nc2cc(Nc3cc(-c4cc(Cl)ccc4F)nnc3OC3CCOC3)ccn2)CC1 (single isomer, unassigned) [Example 73, N-(4-{[6-(5-chloro-2-fluorophenyl)-3-(oxolan-3-yloxy)pyridazin-4-yl]amino}pyridin-2-yl)-2-(4-methyl-1,4-diazepan-1-yl)acetamide]
≤ 0.1 | O=C(Nc1cc(Nc2cc(-c3cc(Cl)ccc3F)nnc2SCCO)ncn1)[C@H]1C[C@@H](N2CCN(C3CC3)CC2)C1 [Example 181, Cis N-(6-{[6-(5-chloro-2-fluorophenyl)-3-[(2-hydroxyethyl)sulfanyl]pyridazin-4-yl]amino}pyrimidin-4-yl)-3-(4-cyclopropylpiperazin-1-yl)cyclobutane-1-carboxamide]
≤ 0.1 | O=C(CN1CCNCC1)Nc1cc(Nc2cc(-c3cc(Cl)ccc3F)nnc2SCCO)ccn1 [Example 60, N-(4-{[6-(5-chloro-2-fluorophenyl)-3-[(2-hydroxyethyl)sulfanyl]pyridazin-4-yl]amino}pyridin-2-yl)-2-(piperazin-1-yl)acetamide]
0.126 to 0.316 | CN1CCN(CCC(=O)Nc2cc(Nc3cc(-c4cc(Cl)ccc4F)nnc3OC[C@H]3C[C@@](C)(O)C3)ccn2)CC1 [Example 123, N-(4-{[6-(5-chloro-2-fluorophenyl)-3-[(3-hydroxy-3-methylcyclobutyl)methoxy]pyridazin-4-yl]amino}pyridin-2-yl)-3-(4-methylpiperazin-1-yl)propanamide]
≤ 0.1 | COC(=O)C1CN(c2nnc(-c3cc(Cl)ccc3F)cc2Nc2ccnc(NC(=O)CN3C[C@@H]4C[C@H]3CN4C)c2)C1 [Example 109, methyl 1-[6-(5-chloro-2-fluorophenyl)-4-[(2-{2-[(1S,4S)-5-methyl-2,5-diazabicyclo[2.2.1]heptan-2-yl]acetamido}pyridin-4-yl)amino]pyridazin-3-yl]azetidine-3-carboxylate]
≤ 0.1 | CN1C[C@@H]2C[C@H]1CN2[C@H]1C[C@H](C(=O)Nc2cc(Nc3cc(-c4cc(Cl)ccc4F)nnc3SCCO)ccn2)C1 [Example 88, Trans N-(4-{[6-(5-chloro-2-fluorophenyl)-3-[(2-hydroxyethyl)sulfanyl]pyridazin-4-yl]amino}pyridin-2-yl)-3-[(1S,4S)-5-methyl-2,5-diazabicyclo[2.2.1]heptan-2-yl]cyclobutane-1-carboxamide]
≤ 0.1 | C[C@@H]1CN([C@H]2C[C@H](C(=O)Nc3cc(Nc4cc(-c5cc(Cl)ccc5F)nnc4N(C)CC4(C)CCOC4=O)ncn3)C2)C[C@H](C)N1 (mixture of isomers) [Example 185, N-(6-{[6-(5-chloro-2-fluorophenyl)-3-{methyl[(3-methyl-2-oxooxolan-3-yl)methyl]amino}pyridazin-4-yl]amino}pyrimidin-4-yl)-3-(3,5-dimethylpiperazin-1-yl)cyclobutane-1-carboxamide]
≤ 0.1 | CN1CCN(CCC(=O)Nc2cc(Nc3cc(-c4cc(Cl)ccc4F)nnc3OCC(O)CO)ccn2)CC1 (stereo not shown) [Example 78, N-(4-{[6-(5-chloro-2-fluorophenyl)-3-(2,3-dihydroxypropoxy)pyridazin-4-yl]amino}pyridin-2-yl)-3-(4-methylpiperazin-1-yl)propanamide]
0.398 to 3.16 | C[N+](C)(C)CCCOc1nnc(-c2cc(Cl)ccc2F)cc1Nc1ccnc(NC(=O)C2CC2)c1 [Example 58, (3-{[6-(5-chloro-2-fluorophenyl)-4-[(2-cyclopropaneamidopyridin-4-yl)amino]pyridazin-3-yl]oxy}propyl)trimethylazanium chloride]
0.126 to 0.316 | Cc1ccc(F)c(-c2cc(Nc3ccnc(NC(=O)CCN4CCN(C)CC4)c3)c(OCC(F)(F)F)nn2)n1 [Example 68, N-(4-{[6-(3-fluoro-6-methylpyridin-2-yl)-3-(2,2,2-trifluoroethoxy)pyridazin-4-yl]amino}pyridin-2-yl)-3-(4-methylpiperazin-1-yl)propanamide]
≤ 0.1 | COc1nnc(-c2cc(Cl)ccc2F)cc1Nc1ccnc(NC(=O)CCN2CCN(CC(F)(F)F)CC2)c1 [Example 13, N-(4-{[6-(5-chloro-2-fluorophenyl)-3-methoxypyridazin-4-yl]amino}pyridin-2-yl)-3-[4-(2,2,2-trifluoroethyl)piperazin-1-yl]propanamide]
≤ 0.1 | COCC1(CN(C)c2nnc(-c3cc(Cl)ccc3F)cc2Nc2ccnc(NC(=O)CCN3CCN(C)CC3)c2)CCOC1=O (racemic) [Example 200, N-(4-{[6-(5-chloro-2-fluorophenyl)-3-({[3-(methoxymethyl)-2-oxooxolan-3-yl]methyl}(methyl)amino)pyridazin-4-yl]amino}pyridin-2-yl)-3-(4-methylpiperazin-1-yl)propanamide]
